Laboratory results reported in article PMC12518639, “Apomorphine is a novel necroptosis inhibitor targeting mixed lineage kinase domain-like protein oligomerization” (Cell Death Discovery, 2025).
pKd: −log10 of the molar value.

Tests used:
Ct-hMLKL (183–471) = target: T1, Ct-hMLKL (183–471) (Homo sapiens, UniProt Q8NB16); test: SPR binding to Ct-hMLKL; conditions: CM5 chip
T1 construct: Nt-hMLKL (2–154), Nt-mMLKL (1–180), and Ct-hMLKL (183–471) were generated using the pBT7-N-His vector; His (N); made in house; host or cells: E. coli BL21
Source text: The hMLKL plasmid (RC213152, OriGene, Rockville, MD, USA), and recombinant Wt-hMLKL (ab241453, Abcam) and Wt-mMLKL (MBS1379843, MyBioSource, San Diego, CA, USA) proteins were purchased. Nt-hMLKL (2–154), Nt-mMLKL (1–180), and Ct-hMLKL (183–471) were generated using the pBT7-N-His vector. Nt-hMLKL^C86A, Nt-hMLKL^F148A, -hMLKL^C86A/L89A/D94A, and Nt-hMLKL^R145A/R146A/F148A/M150A were generated using the Site-directed Mutagenesis Kit (EZ004S, Enzynomics, S. Korea). These constructs were subcloned into pBT7-N-His and pET-15b plasmid vectors. E. coli BL21 cells transformed with the cloned expression vectors were cultured in LB medium and supplemented with 100 μg/mL ampicillin until an OD at 600 nm of 0.5–0.6 was reached. The cultures were induced by 1 mM IPTG (367-93-1, Sigma-Aldrich). The cells were lysed and centrifuged. The clear supernatants were subjected to Ni-NTA affinity chromatography (175018169, QIAGEN, Hilden, Germany). Plasmids encoding mMLKL (1–464)–gyrase fusion constructs were kindly provided by Prof. […]
The interactions of Wt-hMLKL, Wt-mMLKL, Nt-mMLKL, Nt, and Ct-hMLKL proteins with Re-APO or Ox-APO were detected through SPR analysis using Biacore™ T200 (Cytiva, Marlborough, MA, USA). […] Sensorgrams were recorded and analyzed in real-time using the control software in the BIAcore T200 system. All data were analyzed using the BIA evaluation software (Cytiva).

Wt-hMLKL = target: T2, Wt-hMLKL (Homo sapiens, UniProt Q8NB16); test: SPR binding to Wt-hMLKL; conditions: for pKd: SPR, CM5 chip, 25 °C
T2 construct: purchased Abcam ab241453
T2 sequence (Q8NB16 1-471): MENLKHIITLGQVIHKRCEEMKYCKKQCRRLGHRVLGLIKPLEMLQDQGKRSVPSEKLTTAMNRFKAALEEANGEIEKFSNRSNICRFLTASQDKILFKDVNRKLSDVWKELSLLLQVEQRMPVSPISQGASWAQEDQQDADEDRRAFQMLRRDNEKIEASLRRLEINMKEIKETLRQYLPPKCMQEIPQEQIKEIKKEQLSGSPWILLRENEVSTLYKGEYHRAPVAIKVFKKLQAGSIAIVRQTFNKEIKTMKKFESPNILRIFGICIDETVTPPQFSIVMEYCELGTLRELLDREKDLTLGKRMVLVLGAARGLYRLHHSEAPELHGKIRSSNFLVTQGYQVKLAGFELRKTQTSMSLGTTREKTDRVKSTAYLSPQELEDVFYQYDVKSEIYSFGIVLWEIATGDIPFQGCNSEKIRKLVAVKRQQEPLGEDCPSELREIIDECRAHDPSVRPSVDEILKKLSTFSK
Source text: The hMLKL plasmid (RC213152, OriGene, Rockville, MD, USA), and recombinant Wt-hMLKL (ab241453, Abcam) and Wt-mMLKL (MBS1379843, MyBioSource, San Diego, CA, USA) proteins were purchased. Nt-hMLKL (2–154), Nt-mMLKL (1–180), and Ct-hMLKL (183–471) were generated using the pBT7-N-His vector. Nt-hMLKL^C86A, Nt-hMLKL^F148A, -hMLKL^C86A/L89A/D94A, and Nt-hMLKL^R145A/R146A/F148A/M150A were generated using the Site-directed Mutagenesis Kit (EZ004S, Enzynomics, S. Korea). These constructs were subcloned into pBT7-N-His and pET-15b plasmid vectors. E. coli BL21 cells transformed with the cloned expression vectors were cultured in LB medium and supplemented with 100 μg/mL ampicillin until an OD at 600 nm of 0.5–0.6 was reached. The cultures were induced by 1 mM IPTG (367-93-1, Sigma-Aldrich). The cells were lysed and centrifuged. The clear supernatants were subjected to Ni-NTA affinity chromatography (175018169, QIAGEN, Hilden, Germany). Plasmids encoding mMLKL (1–464)–gyrase fusion constructs were kindly provided by Prof. James Murphy (Cell Signalling and Cell Death Division, The Walter and Eliza Hall Institute of Medical Research, Parkville, Victoria 3052, Australia).
The interactions of Wt-hMLKL, Wt-mMLKL, Nt-mMLKL, Nt, and Ct-hMLKL proteins with Re-APO or Ox-APO were detected through SPR analysis using Biacore™ T200 (Cytiva, Marlborough, MA, USA). Each MLKL protein was immobilized on a CM5 sensor chip. To derive the Rligand values, coupling processes were performed based on the molecular weights of the MLKL protein (MW ligand) and Re-APO or Ox-APO (MW analyte). Re-APO or Ox-APO was injected into an HBS buffer (10 mM HEPES, 150 mM NaCl, 3.4 mM EDTA, and 0.005% Tween 20, pH 7.4) at 25 °C (10 μL/min flow rate). Sensorgrams were recorded and analyzed in real-time using the control software in the BIAcore T200 system. All data were analyzed using the BIA evaluation software (Cytiva).

| SMILES | binding in SPR (Ct-hMLKL (183–471)) | pKd (Wt-hMLKL) | fold stronger binding than Re-APO (Wt-hMLKL; from KD values) |
| --- | --- | --- | --- |
| CN1CCc2cccc3c4c(cc1c23)C=CC(=O)C4=O [Ox-APO] | no detectable binding | 8.30 | ~ 50 fold |
| CN1CCc2cccc3c2C1Cc1ccc(O)c(O)c1-3 (centres unmarked) [Re-APO] | no detectable binding | 6.61 |  |
